Here are results for 11 compounds from US20210246128A1, “BICYCLE TOPOISOMERASE I INHIBITING COMPOUNDS, PROCESS FOR PREPARATION AND USE THEREOF” (Council of Scientific & Industrial Research, priority 2018, published 2021).

Values after ≈ are worked out from the molar mass of the structure shown. Read-outs that look alike come from different tables or passages of the source.

A short description of series [1]: Solubility assay (pH 7.4 pION buffer, UV). The format is physicochemical. Particulars: pH 7.4 pION buffer, aqueous buffer, kinetic from dmso stock; pH 7.4 buffer, 18 hours incubation; read-out: Avg. Solubility (μg/mL) at pH 7.4. Here is the method: 5 μL of 20 mM DMSO stock from the stock plate was added to the reaction deep well plate containing 495 μL of pH 7.4 pION buffer (including DMSO control) respectively and the samples were mixed and incubated for 18 hours. The plate was sealed well during the incubation process. The DMSO content in the sample was <1.0%. The concentration in deep well plates was 200 μM. 4 μL of 20 mM stock (including DMSO control) was added to 996 μL of acetonitrile to prepare the working stock plate. 75 μL of working stock was added to 75 μL of blank buffer and read on spectrophotometer as reference plate at 240 nm. At the end of the incubation period, 100 μL of sample from storage plate was vacuum filtered using a filter plate. This step wets the filters and the filtrate was discarded. Another 200 μL of the sample from deep well plate was vacuum filtered in to a new filter collection plate. 75 μL of the filtrate from the filter collection plate was transferred to a UV sample plate. 75 μL of acetonitrile was added to this UV plate. The solution was mixed and the spectrum was read using the UV spectrophotometer at 240 nm. Plates were read on spectramax using SoftMax Pro software version 5.3.

Series [2] has as its target T1, recombinant human TopI (HTopI) (Homo sapiens, UniProt P11387).
T1 sequence (P11387 1-765): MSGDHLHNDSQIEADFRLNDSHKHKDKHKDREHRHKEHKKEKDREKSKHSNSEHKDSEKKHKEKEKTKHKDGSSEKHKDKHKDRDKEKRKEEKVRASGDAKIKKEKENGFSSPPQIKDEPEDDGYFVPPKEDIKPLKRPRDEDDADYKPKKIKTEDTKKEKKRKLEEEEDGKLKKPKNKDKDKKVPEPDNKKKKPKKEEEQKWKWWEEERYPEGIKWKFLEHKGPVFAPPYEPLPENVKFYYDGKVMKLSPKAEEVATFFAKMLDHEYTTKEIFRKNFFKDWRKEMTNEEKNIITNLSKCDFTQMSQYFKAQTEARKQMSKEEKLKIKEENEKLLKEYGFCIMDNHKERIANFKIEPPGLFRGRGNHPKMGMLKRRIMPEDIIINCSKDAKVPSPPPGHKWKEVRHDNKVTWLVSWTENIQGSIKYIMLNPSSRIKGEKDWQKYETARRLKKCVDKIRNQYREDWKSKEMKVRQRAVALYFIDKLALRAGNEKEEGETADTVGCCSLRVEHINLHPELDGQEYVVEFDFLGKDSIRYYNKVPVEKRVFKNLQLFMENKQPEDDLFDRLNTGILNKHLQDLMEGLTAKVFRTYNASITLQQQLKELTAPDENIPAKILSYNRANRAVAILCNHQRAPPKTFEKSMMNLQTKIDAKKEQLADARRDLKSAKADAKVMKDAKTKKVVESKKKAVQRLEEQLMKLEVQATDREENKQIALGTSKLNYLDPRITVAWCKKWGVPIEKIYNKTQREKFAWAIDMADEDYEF
Kind of series: Gel based plasmid DNA relaxation assay with recombinant TopI (in vitro). The format is biochemical. Particulars: recombinant human TopI; for IC50: plasmid DNA relaxation. The protocol:
(§1) Human ToPI Inhibition in Plasmid DNA Relaxation Assays with Recombinant TopI (In Vitro) or MCF7 Cell Lysates (Ex Vivo)
(§2) Relaxation of supercoiled pBSSK(^+) DNA with recombinant human TopI (HTopI) at a molar ratio of 3:1 at 37° C. for 30 minutes was performed

Series [3] in a line: Lipophilicity assay (octanol/buffer Log D). As to conditions: n-octanol/sodium phosphate buffer, pH 7.4.
Protocol: 1.56 g NaH2PO4.2H2O was dissolved in 0.5 L water in a 1 L beaker. After adjusting pH to 7.4 using NaOH solution, the volume was made up to 1 L. Equal volumes of sodium phosphate buffer (10 mM, pH 7.4) and n-octanol were added to a separation funnel and mixed thoroughly by shaking and inverting the funnel several times. The two layers were allowed to separate for 2 days and then dispensed in two separate glass bottles. 10 mM stock solution was prepared in 100% DMSO and stored at 4° C. 500 μL of organic phase (1-octanol) was added to each well of a 2 mL deep well plate, followed by 500 μL of buffer and 15 μL of test substance was added. The plate was vortexed for 1 hr on a plate shaker at 1200 rpm. After incubation, the samples were allowed to equilibrate for 20 min and then centrifuged at 4000 rpm for 30 min for complete phase separation and analysed by LC-UV.
Log D=Log(area of octanol/area of buffer)
Mean, SD and % CV for each set of triplicates were calculated
The target in series [4] is T2, endogenous TopI from the whole cell extracts of human breast adenocarcinoma (MCF7) cell (Homo sapiens, UniProt P11387).
T2 construct: TopI enzyme in the extract is conserved in its native structure among a plethora of other cellular proteins; endogenous in cells; host or cells: MCF7 whole cell extract
T2 sequence (P11387 1-765): T1 sequence (P11387 1-765)
The series can be described thus: Plasmid DNA relaxation assay with MCF7 cell lysates (ex vivo). The format is biochemical. As to conditions: MCF7 cell lysates as source of TopI. The protocol:
as §1, §2
cellular extracts were utilized as a source of TopI (ex vivo) in plasmid DNA relaxation assays. TopI enzyme in the extract is conserved in its native structure among a plethora of other cellular proteins.

The nature of series [5]: Caco-2 permeability (21 day culture of Caco-2 cell monolayer). Format: in vitro ADME. Particulars: human; for efflux ratio at 120 min, 10 μM: Caco-2, pH 7.4; for recovery at 120 min, 10 μM: Caco-2, pH 7.4, Caco-2; for Papp A→B at 120 min, 10 μM / Papp B→A at 120 min, 10 μM: pH 7.4, Caco-2, 10 μM; for Papp A→B at 120 min, 10 μM: read-out: Papp Apical to Basal; for Papp B→A at 120 min, 10 μM: read-out: Papp Basal to Apical. The protocol:
5 mL of 100 mM sodium pyruvate, 5 mL of 10× non-essential amino acids, 5 mL of penstrep were added to 100 mL of heat inactivated foetal bovine serum to 385 mL of DMEM aseptically and mixed thoroughly. One vial of Hank's balanced salt (Sigma-H1387) was dissolved in 900 mL of milli Q water; adjusted the pH to 7.4 and made up the volume to 1000 mL with the same. The solution was filter sterilized and stored at 4° C. Stock solution of test compound (10 mM) was prepared in DMSO. 10 mM stock was diluted with HBSS Buffer to a final concentration of 10 μM.
250 μL of DMEM was added to the basal compartment of 96 well multi-screen Caco-2 plate and seeded 12000 cells/well (0.16×10^6 cells/ml) in all the apical wells required and one well with only media as blank without cells, placed the Caco-2 plate in CO2 incubator at 37° C. for proliferation of cells.
On the day of assay, medium was removed and washed twice with HBSS Buffer and incubated with HBSS buffer for 30 min in an incubator and wells with TEER values >230 ohm·cm^2 were selected for the incubation. 75 μL of test compound was added to apical wells and 250 μL of HBSS buffer with 2% BSA was added to basal wells. 25 μL of basal samples was collected at 120 min and processed as stated below.
250 μL of test compound was added to basal wells and 75 μL of HBSS buffer with 2% BSA was added to apical wells. 25 μL of apical samples was collected at 120 min and processed as stated below.
Single point calibration curve in HBSS buffer with 2% BSA was used. Donor samples were diluted 1:1 with HBSS containing 2% BSA and receiver samples were diluted with 1.1 HBSS buffer and precipitated with 200 μL of acetonitrile containing internal standard and vortexed for 5 min @ 1000 rpm, centrifuged at 4000 rpm for 10 min. Finally 100 μL of supernatant was diluted with 200 μL of water and submitted for LC-MS/MS analysis.

The next series in a line: Plasma stability assay. As to conditions: pH 7.4, 37° C., 1 μM. Format: in vitro ADME. Here is the method:
The stock solution of 10 mM of test compound in DMSO was prepared and stored at 4° C. 25 μM stock of test compound was prepared in acetonitrile: water by diluting from 10 mM stock (i.e. 2.5 μL of 10 mM stock solution was added to 997.5 μL of acetonitrile: water (50:50). The frozen plasma was thawed at room temperature and centrifuged at 1400×RCF (relative centrifugal force) 4° C., for 15 minutes. Approximately 90% of the clear supernatant fraction was transferred to a separate tube and was used for the assay.
For 0 min samples, plasma was heat inactivated at 56° C. for 45 min. To 72 μL of heat inactivated plasma, 3 μL of 25 μM test compound was added. A 25 μL aliquot of the mixture was taken and crashed with 200 μL of acetonitrile containing internal standard and further processed along with other time points. For other time point samples, final working stock of 1 μM was prepared by diluting in plasma (i.e. 8 μL of 25 μM acetonitrile:water stock was added to 192 μL of plasma). 200 μL of plasma containing the test compound was incubated for 2 hrs at 37° C. in shaker water bath with gentle shaking. 25 μL aliquot of sample at 0, 15, 30, 60 and 120 min was precipitated immediately with 200 μL of acetonitrile containing internal standard and centrifuged at 4000×RCF, 4° C. for 20 minutes. 150 μL of supernatant was diluted with 150 μL of water and analyzed on LC-MS/MS.

The subject of another series is calf thymus (CT) DNA. The series can be described thus: Ethidium bromide (EtBr) displacement assay. Format: binding. Particulars: 1 μM EtBr, 5 nM CT DNA, 0-200 μM compound.

Consider `CCCSc1ccc2nc(NC(=O)OC)[nH]c2c1` [Albendazole, reference compound], for which, in series [1], the solubility at 18 h turned out to be 3.31 µg/mL (≈ 12.5 µM).

`COc1ccc(-c2ccc3ncc(-c4nnco4)c(NCCN4CCOCC4)c3c2)cc1OC` [Compound 8, 6-(3,4-dimethoxyphenyl)-N-(2-morpholinoethyl)-3-(1,3,4-oxadiazol-2-yl)quinolin-4-amine] returned a melting point of 116 °C.

`COc1ccc(-c2ccc3ncc(-c4nnco4)c(NCCN4CCOCC4)c3c2)cc1` [Compound 9, 6-(4-methoxyphenyl)-N-(2-morpholinoethyl)-3-(1,3,4-oxadiazol-2-yl)quinolin-4-amine] yielded a melting point of 156 °C. Besides, in series [2] (at 10 μM, read-out: In vitro inhibition at 10 μM), the inhibition at 10 µM stood at 45%.

Take `Cc1ccc(-c2ccc3ncc(-c4nnco4)c(NCCN4CCOCC4)c3c2)cc1[N+](=O)[O-]` [Compound 10, 6-(4-methyl-3-nitrophenyl)-N-(2-morpholinoethyl)-3-(1,3,4-oxadiazol-2-yl)quinolin-4-amine]: the melting point is 222 °C.

Regarding `N#Cc1ccc(-c2ccc3ncc(-c4nnco4)c(NCCN4CCOCC4)c3c2)cc1` [Compound 11, 4-(4-(2-morpholinoethylamino)-3-(1,3,4-oxadiazol-2-yl)quinolin-6-yl)benzonitrile], the melting point turned out to be 190 °C.

In the case of `c1cncc(-c2ccc3ncc(-c4nnco4)c(NCCCn4ccnc4)c3c2)c1` [Compound 30, N-(3-(1H-imidazol-1-yl)propyl)-3-(1,3,4-oxadiazol-2-yl)-6-(pyridin-3-yl)quinolin-4-amine], the logD in series [3] worked out at 3.54. The IC50 in series [2] was determined as 397 nM; in series [4], 1250 nM. The solubility at 18 h in series [1] is 44 µg/mL (≈ 111 µM). For the same compound, the efflux ratio at 120 min, 10 μM in series [5] worked out at 40. Moreover, the recovery at 120 min, 10 μM in series [5] (read-out: A to B % Recovery) was 84.8%; in series [5] (read-out: B to A % Recovery), 74.2%. Further, the Papp A→B at 120 min, 10 μM in series [5] came out at 0.95 ×10⁻⁶ cm/s. Further, the Papp B→A at 120 min, 10 μM in series [5] came out at 38.3 ×10⁻⁶ cm/s. In “Plasma stability assay”, the “Mean % remaining at 2 hrs in human Plasma” value stood at 14.62%.

`COc1ccc(-c2ccc3ncc(-c4nnco4)c(NCCCn4ccnc4)c3c2)cn1` [Compound 33, N-(3-(1H-imidazol-1-yl)propyl)-6-(6-methoxypyridin-3-yl)-3-(1,3,4-oxadiazol-2-yl)quinolin-4-amine] displayed a logD in series [3] of 2.79. Besides, the half-inhibitory concentration (IC50) in series [2] stood at 17 nM. For the same compound, the solubility at 18 h in series [1] was 27.9 µg/mL (≈ 65.4 µM). The same compound returned an IC50 in series [4] of 625 nM. Further, in series [5], the efflux ratio at 120 min, 10 μM is 4.01; the Papp A→B at 120 min, 10 μM was determined as 7.89 ×10⁻⁶ cm/s; the Papp B→A at 120 min, 10 μM was 31.5 ×10⁻⁶ cm/s. Also, the recovery at 120 min, 10 μM in series [5] (read-out: A to B % Recovery) stood at 83.9%. Further, the recovery at 120 min, 10 μM in series [5] (read-out: B to A % Recovery) amounted to 92%. In the series “Plasma stability assay”, the “Mean % remaining at 2 hrs in human Plasma” value worked out at 102.28%.

As to `COc1cccc(-c2ccc3ncc(-c4nnco4)c(NCCCn4ccnc4)c3c2)c1` [Compound 82, N-(3-(1H-Imidazol-1-yl)propyl)-6-(3-methoxyphenyl)-3-(1,3,4-oxadiazol-2-yl)quinolin-4-amine], the melting point came out at 96 °C. Further, in series [2], the half-inhibitory concentration (IC50) was determined as 1050 nM. In addition, the IC50 in series [4] turned out to be 4110 nM.

Take `CC(C(=O)O)c1ccc(-c2ccccc2)c(F)c1` (centres unmarked) [Flurbiprofen, reference compound]: in series [1], the solubility at 18 h is 54 µg/mL (≈ 221 µM).

In the case of `COc1cc([C@@H]2c3cc4c(cc3[C@@H](O[C@@H]3O[C@@H]5CO[C@@H](C)O[C@H]5[C@H](O)[C@H]3O)[C@H]3COC(=O)[C@H]23)OCO4)cc(OC)c1O` [etoposide], the “displacement of bound EtBr (DNA intercalation)” value with calf thymus (CT) DNA is “unable to displace EtBr”.

Turning to `COc1cc(NS(C)(=O)=O)ccc1Nc1c2ccccc2nc2ccccc12` [m-AMSA], the “displacement of bound EtBr (DNA intercalation)” value in the series on calf thymus (CT) DNA is reported as “capability to dislodge the bound fluorophore (EtBr) at 50 μM concentration”.
